Where a name gives a salt, the structure may show the parent alone.
Tests used:
HPK1 pSLP76 (Ser376) = test: Cellular assay phospho-SLP-76 (Ser376); format: cell-based, human; conditions: SLP76 Ser376 phosphorylation after αCD3/αCD28 stimulation; Jurkat (human) or EL-4 (mouse) cells, table does not say which; read-out: HPK1 pSLP76 IC50
In short: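 Jurkat (human) and EL-4 (mouse) cells preincubated 60 min with compound, then stimulated with αCD3/αCD28 Dynabeads at 37 °C (Jurkat 15 min; EL-4 30 min). SLP76 Ser376 phosphorylation in lysate read by AlphaLISA SureFire (Jurkat) or HTRF (EL-4, 19 h); IC50 from 10-point dilutions.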

[1] = molecular target: full-length human HPK1 (MAP4K1) (Homo sapiens (Human), UniProt Q92918); test: HPK1 kinase assay (biochemical, ADP-Glo); conditions: GST-HPK1 3.2 nM, 10 μM ATP, MBP substrate, ADP-Glo; read-out: HPK1 enzymatic IC50
Chain of full-length human HPK1 (MAP4K1) (Q92918 whole entry): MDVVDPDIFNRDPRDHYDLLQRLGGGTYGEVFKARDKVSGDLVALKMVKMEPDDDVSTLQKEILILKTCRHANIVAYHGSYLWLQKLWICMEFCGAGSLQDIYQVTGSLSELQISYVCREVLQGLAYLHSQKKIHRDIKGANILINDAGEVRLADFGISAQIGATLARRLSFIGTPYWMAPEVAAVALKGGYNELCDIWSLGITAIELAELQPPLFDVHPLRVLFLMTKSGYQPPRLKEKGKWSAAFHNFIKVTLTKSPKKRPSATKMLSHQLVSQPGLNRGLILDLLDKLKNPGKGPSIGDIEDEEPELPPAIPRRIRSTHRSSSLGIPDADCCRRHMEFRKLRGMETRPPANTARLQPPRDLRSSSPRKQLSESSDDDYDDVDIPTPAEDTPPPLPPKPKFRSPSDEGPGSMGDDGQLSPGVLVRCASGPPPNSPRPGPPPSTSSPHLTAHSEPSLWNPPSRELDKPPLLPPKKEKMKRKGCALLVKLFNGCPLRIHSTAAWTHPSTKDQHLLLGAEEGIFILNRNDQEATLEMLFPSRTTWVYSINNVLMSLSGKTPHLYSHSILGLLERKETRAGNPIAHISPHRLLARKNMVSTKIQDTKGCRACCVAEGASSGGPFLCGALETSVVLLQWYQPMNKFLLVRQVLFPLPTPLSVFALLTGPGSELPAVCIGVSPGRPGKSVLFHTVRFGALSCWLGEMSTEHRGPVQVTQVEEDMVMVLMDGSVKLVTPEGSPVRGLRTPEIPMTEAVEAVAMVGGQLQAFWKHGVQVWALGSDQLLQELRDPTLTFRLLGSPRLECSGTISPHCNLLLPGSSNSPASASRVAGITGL
In short: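 GST-tagged full-length human HPK1 from Sf21 baculovirus cells (3.2 nM in enzyme mix; 50 mM HEPES pH 7.5, 10 mM MgCl2) was preincubated 15 min at RT with compound. Reaction was started with Start-Mix (10 μM ATP, 3.235 μM MBP) and run 120 min. ADP was read by ADP-Glo luminescence; IC50 came from 10-point % inhibition.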

Compound	IC50 (HPK1 pSLP76 (Ser376)) [nM]	IC50 [1] [nM]
C[C@@H]1CN(Cc2ccc(-c3cc(C(N)=O)c4ncnc(N[C@H]5CCCNC5)c4n3)cc2)C[C@@H](C)O1 [Example 68, 6-(4-[[(2R,6R)-2,6-dimethylmorpholin-4-yl]methyl]phenyl)-4-[(3S)-piperidin-3-ylamino]pyrido[3,2-d]pyrimidine-8-carboxamide]	500 to 1000	< 100
C[C@@H]1CN(Cc2ccc(-c3cc(C(N)=O)c4ncnc(N[C@H]5CCCNC5)c4n3)cc2)CCO1 [Example 69, 6-(4-[[(2R)-2-methylmorpholin-4-yl]methyl]phenyl)-4-[(3S)-piperidin-3-ylamino]pyrido[3,2-d]pyrimidine-8-carboxamide dihydrochloride]	> 1000	< 100
NC(=O)c1cc(-c2ccc(CN3CCOC(F)(F)C3)cc2)nc2c(N[C@H]3CCCNC3)ncnc12 [Example 70, 6-[4-[(2,2-difluoromorpholin-4-yl)methyl]phenyl]-4-[(3S)-piperidin-3-ylamino]pyrido[3,2-d]pyrimidine-8-carboxamide]	500 to 1000	< 100
COc1ccccc1-c1cc(C(N)=O)c2ncnc(N[C@H]3CCCNC3)c2n1 [Example 72, 6-(2-methoxyphenyl)-4-[(3S)-piperidin-3-ylamino]pyrido[3,2-d]pyrimidine-8-carboxamide]	> 1000	< 100
CC1(N2CCOCC2)CC=C(c2cc(C(N)=O)c3ncnc(N[C@H]4CCCNC4)c3n2)CC1 (stereo partly drawn) [Example 74, 6-[4-methyl-4-(morpholin-4-yl)cyclohex-1-en-1-yl]-4-{[(3S)-piperidin-3-yl]amino}pyrido[3,2-d]pyrimidine-8-carboxamide]	> 1000	< 100
NC(=O)c1cc(C2=CCN(C(=O)C3CC3)CC2)nc2c(N[C@H]3CCCNC3)ncnc12 [Example 75, 6-(1-cyclopropanecarbonyl-1,2,3,6-tetrahydropyridin-4-yl)-4-{[(3S)-piperidin-3-yl]amino}pyrido[3,2-d]pyrimidine-8-carboxamide]	500 to 1000	< 100
NC(=O)c1cc(-c2ccc(F)cc2)nc2c(N[C@H]3CCCNC3)ncnc12 [Example 76, 6-(4-fluorophenyl)-4-{[(3S)-piperidin-3-yl]amino}pyrido[3,2-d]pyrimidine-8-carboxamide]	< 500	< 100
Cc1nn(C)cc1-c1cc(C(N)=O)c2ncnc(N[C@H]3CCCNC3)c2n1 [Example 79, 6-(1,3-dimethyl-1H-pyrazol-4-yl)-4-{[(3S)-piperidin-3-yl]amino}pyrido[3,2-d]pyrimidine-8-carboxamide]	> 1000	< 100
NC(=O)c1cc(-c2cnn(CC(F)F)c2)nc2c(N[C@H]3CCCNC3)ncnc12 [Example 81, 6-[1-(2,2-difluoroethyl)-1H-pyrazol-4-yl]-4-{[(3S)-piperidin-3-yl]amino}pyrido[3,2-d]pyrimidine-8-carboxamide]	> 1000	< 100
NC(=O)c1cc(-c2ccc(C3(O)COC3)cc2)nc2c(N[C@H]3CCCNC3)ncnc12 [Example 82, 6-[4-(3-hydroxyoxetan-3-yl)phenyl]-4-{[(3S)-piperidin-3-yl]amino}pyrido[3,2-d]pyrimidine-8-carboxamide]	500 to 1000	< 100
Cn1cc(-c2cc(C(N)=O)c3ncnc(N[C@H]4CCCNC4)c3n2)cc1C#N [Example 83, 6-(5-cyano-1-methyl-1H-pyrrol-3-yl)-4-{[(3S)-piperidin-3-yl]amino}pyrido[3,2-d]pyrimidine-8-carboxamide]	< 500	< 100
N#Cc1ccccc1-c1cc(C(N)=O)c2ncnc(N[C@H]3CCCNC3)c2n1 [Example 86, 6-(2-cyanophenyl)-4-{[(3S)-piperidin-3-yl]amino}pyrido[3,2-d]pyrimidine-8-carboxamide]	500 to 1000	< 100

— patent US20250320228A1, “PYRIDO[3,2-D]PYRIMIDINES AS HPK1 INHIBITORS” (Merck Patent GmbH, priority 2022, published 2025)
